molecular target: JAK1 (Homo sapiens (Human), UniProt P23458); test: Jak biochemical HTRF assay, JAK1; conditions: HTRF biochemical assay, recombinant GST-tagged catalytic domain; read-out: JAK1 IC50
Description: Jak Biochemical HTRF Assay Protocol
The ability of compounds to inhibit the activity of JAK1, JAK2, JAK3, and Tyk2 was measured using a recombinant purified GST-tagged catalytic domain for each enzyme (Invitrogen JAK1 #M4290, JAK2 #M4290, JAK3 #M4290, Tyk2 #M4290) in an HTRF format biochemical assay. […] The basic assay protocol is as follows: First, 250 nL of diluted compounds in DMSO were dispensed into the wells of a dry 384-well Black plate (Greiner #781076) using a Labcyte Echo 555 acoustic dispenser. Subsequent reagent additions employed an Agilent Bravo. […] After equilibration, 2 μL of 10×ATP in 1× assay buffer was added to initiate the kinase reaction and the plates were shaken and then incubated at room temperature for 120 minutes. […] Plates were shaken and centrifuged and then incubated 60 minutes at room temperature and then read on a Perkin Elmer Envision (λex=337 nm, λem=665 and 615 nm, TRF delay time=20 μs). HTRF signal=10,000*665 nm reading/615 nm reading. After normalization to untreated controls, the percent inhibition of the HTRF signal at each compound concentration was calculated. The plot of percent inhibition versus the log of compound concentration was fit with a 4-parameter dose response equation to calculate IC50 values.
Final Reaction Conditions were:
Examples of the instant invention were evaluated in JAK1 and JAK2 in vitro binding assays.

Chain of JAK1 (P23458 875-1153): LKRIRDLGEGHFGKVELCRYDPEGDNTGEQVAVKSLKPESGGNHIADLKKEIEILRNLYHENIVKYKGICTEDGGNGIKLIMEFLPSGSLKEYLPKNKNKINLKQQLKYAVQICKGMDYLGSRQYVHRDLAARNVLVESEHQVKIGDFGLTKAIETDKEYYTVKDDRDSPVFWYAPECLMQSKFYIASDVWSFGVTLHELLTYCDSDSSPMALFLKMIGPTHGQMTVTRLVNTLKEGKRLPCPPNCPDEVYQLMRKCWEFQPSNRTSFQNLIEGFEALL

IC50	Structure (SMILES)
0.56 nM	N#C[C@H]1CCCC[C@@H]1n1nc(Nc2ccc(F)cc2)c2c(=O)[nH]ccc21 (racemic) [Example 2-1, (trans)-2-{3-[(4-Fluorophenyl)amino]-4-oxo-4,5-dihydro-1H-pyrazolo[4,3-c]pyridin-1-yl}cyclohexanecarbonitrile]
0.42 nM	N#C[C@@H]1CCCCC[C@H]1n1nc(Nc2ccc3c(c2)CN(C(=O)N2CCCCC2)C3)c2c(=O)[nH]ccc21 (single isomer, unassigned) [Example 15-53, (1R,2R or 1S,2S)-2-(4-oxo-3-{[2-(piperidin-1-ylcarbonyl)-2,3-dihydro-1H-isoindol-5-yl]amino}-4,5-dihydro-1H-pyrazolo[4,3-c]pyridin-1-yl)cycloheptanecarbonitrile]
9.8 nM	N#C[C@@H]1C[C@@H](O)CC[C@H]1n1nc(Nc2ccc(C(F)(F)F)cc2)c2c(=O)[nH]ccc21 [Example 3-89, (1R,2R,5S)-5-hydroxy-2-(4-oxo-3-((4-(trifluoromethyl)phenyl)amino)-4,5-dihydro-1H-pyrazolo[4,3-c]pyridin-1-yl)cyclohexanecarbonitrile]
0.09 nM	N#C[C@H]1CCC[C@@H]1n1nc(Nc2ccc(S(N)(=O)=O)cc2)c2c(=O)[nH]ccc21 [Example 3-99, 4-({1-[(1S,2S)-2-cyanocyclopentyl]-4-oxo-4,5-dihydro-1H-pyrazolo[4,3-c]pyridin-3-yl}amino)benzenesulfonamide]
0.095 nM	CC1c2cc(Nc3nn([C@H]4CCCC[C@@H]4C#N)c4cc[nH]c(=O)c34)ccc2S(=O)(=O)N1CC(F)(F)F (single isomer, unassigned) [Example 3-128, (1S,2S)-2-(3-(((R or S)-3-methyl-1,1-dioxido-2-(2,2,2-trifluoroethyl)-2,3-dihydrobenzo[d]isothiazol-5-yl)amino)-4-oxo-4,5-dihydro-1H-pyrazolo[4,3-c]pyridin-1-yl)cyclohexanecarbonitrile]
1.9 nM	CC(C)(C)N1Cc2cc(Nc3nn([C@H]4CCCCC[C@@H]4C#N)c4cc[nH]c(=O)c34)ccc2S1(=O)=O (single isomer, unassigned) [Example 3-176, (1S,2S or 1R,2R)-2-{3-[(2-tert-butyl-1,1-dioxido-2,3-dihydro-1,2-benzisothiazol-5-yl)amino]-4-oxo-4,5-dihydro-1H-pyrazolo[4,3-c]pyridin-1-yl}cycloheptanecarbonitrile]
0.23 nM	N#C[C@H]1CCCC[C@@H]1n1nc(Nc2ccc3c(c2)CC2(CC2)C3(O)C(F)(F)F)c2c(=O)[nH]ccc21 (single isomer, unassigned) [Example 3-124, (1S,2S)-2-(3-(((R or S)-1′-hydroxy-1′-(trifluoromethyl)-1′,3′-dihydrospiro[cyclopropane-1,2′-inden]-5′-yl)amino)-4-oxo-4,5-dihydro-1H-pyrazolo[4,3-c]pyridin-1-yl)cyclohexanecarbonitrile]
0.069 nM	N#C[C@H]1CCC[C@@H]1n1nc(Nc2ccc(C3(C(F)(F)F)CCCCN3)cc2)c2c(=O)[nH]ccc21 (single isomer, unassigned) [Example 15-71, (1S,2S)-2-[4-oxo-3-({4-[(2S or 2R)-2-(trifluoromethyl)piperidin-2-yl]phenyl}amino)-4,5-dihydro-1H-pyrazolo[4,3-c]pyridin-1-yl]cyclopentanecarbonitrile]
0.095 nM	N#C[C@H]1CCCC[C@@H]1n1nc(Nc2ccc([C@]3(O)CC[C@@H](C(=O)O)CC3)cc2)c2c(=O)[nH]ccc21 (racemic) [Example 17-1, (1R,4S and 1S,4R)-4-(4-(1-((1S,2S)-2-Cyanocyclohexyl)-4-oxo-4,5-dihydro-1H-pyrazolo[4,3-c]pyridin-3-ylamino)phenyl)-4-hydroxycyclohexanecarboxylic acid]
0.094 nM	CC1(C)C(O)c2cc(Nc3nn([C@H]4CCCC[C@@H]4C#N)c4cc[nH]c(=O)c34)ccc2S1(=O)=O (single isomer, unassigned) [Example 3-173, (1S,2S)-2-(3-{[(3R or 3S)-3-hydroxy-2,2-dimethyl-1,1-dioxido-2,3-dihydro-1-benzothiophen-5-yl]amino}-4-oxo-4,5-dihydro-1H-pyrazolo[4,3-c]pyridin-1-yl)cyclohexanecarbonitrile]
0.15 nM	CC(C)S(=O)(=O)c1ccc(Nc2nn([C@H]3CCCC[C@@H]3C#N)c3cc[nH]c(=O)c23)cc1 [Example 3-141, (1S,2S)-2-[3-({4-[(1-methylethyl)sulfonyl]phenyl}amino)-4-oxo-4,5-dihydro-1H-pyrazolo[4,3-c]pyridin-1-yl]cyclohexanecarbonitrile]
0.52 nM	CC(C)(C)[S@@+]([O-])N[C@@H](c1ccc(Nc2nn([C@H]3CCCC[C@@H]3C#N)c3cc[nH]c(=O)c23)cc1)C(F)(F)F (stereo in doubt) [Example 3-55]
0.39 nM	CC1(C)C(O)c2cc(Nc3nn([C@H]4CCCC[C@@H]4C#N)c4cc[nH]c(=O)c34)ccc2S1(=O)=O (single isomer, unassigned) [Example 3-172, (1S,2S)-2-(3-{[(3S or 3R)-3-hydroxy-2,2-dimethyl-1,1-dioxido-2,3-dihydro-1-benzothiophen-5-yl]amino}-4-oxo-4,5-dihydro-1H-pyrazolo[4,3-c]pyridin-1-yl)cyclohexanecarbonitrile]
0.22 nM	CC(C)(C)OC(=O)C1CCC(N2Cc3cc(Nc4nn([C@H]5CCCC[C@@H]5C#N)c5cc[nH]c(=O)c45)ccc3C2=O)CC1 (single isomer, unassigned) [Example 3-135, (cis or trans)tert-butyl 4-(5-((1-((1S,2S)-2-cyanocyclohexyl)-4-oxo-4,5-dihydro-1H-pyrazolo[4,3-c]pyridin-3-yl)amino)-1-oxoisoindolin-2-yl)cyclohexanecarboxylate]
0.11 nM	CN(C)C(c1ccc(Nc2nn([C@H]3CCCC[C@@H]3C#N)c3cc[nH]c(=O)c23)cc1)C(F)(F)F (single isomer, unassigned) [Example 9-4, (1S,2S)-2-(3-(4-((R or S)-1-(Dimethylamino)-2,2,2-trifluoroethyl)phenylamino)-4-oxo-4,5-dihydropyrazolo[4,3-c]pyridin-1-yl)cyclohexanecarbonitrile]
0.14 nM	N#C[C@H]1C[C@@H](N2CC(O)C2)CC[C@@H]1n1nc(Nc2ccc(Cl)cc2)c2c(=O)[nH]ccc21 [Example 5-20, (1S,2S,5S)-2-(3-((4-chlorophenyl)amino)-4-oxo-4,5-dihydro-1H-pyrazolo[4,3-c]pyridin-1-yl)-5-(3-hydroxyazetidin-1-yl)cyclohexanecarbonitrile]
9.4 nM	C[C@H](N[C@@H]1CC[C@@H](n2nc(Nc3ccc(C(F)(F)F)cc3)c3c(=O)[nH]ccc32)[C@H](C#N)C1)C1CC1 [Example 5-14, (1R,2R,5R)-5-(((S)-1-cyclopropylethyl)amino)-2-(4-oxo-3-((4-(trifluoromethyl)phenyl)amino)-4,5-dihydro-1H-pyrazolo[4,3-c]pyridin-1-yl)cyclohexanecarbonitrile]
0.61 nM	CC1NCc2cc(Nc3nn([C@H]4CCCC[C@@H]4C#N)c4cc[nH]c(=O)c34)ccc21 (single isomer, unassigned) [Example 12-5, (1S,2S)-2-(3-{[(1R or 1S)-1-methyl-2,3-dihydro-1H-isoindol-5-yl]amino}-4-oxo-4,5-dihydro-1H-pyrazolo[4,3-c]pyridin-1-yl)cyclohexanecarbonitrile]
1.2 nM	C[C@H](N[C@H]1CC[C@H](n2nc(Nc3ccc(C(F)(F)F)cc3)c3c(=O)[nH]ccc32)[C@@H](C#N)C1)C1CC1 [Example 5-12, (1S,2S,5S)-5-(((S)-1-cyclopropylethyl)amino)-2-(4-oxo-3-((4-(trifluoromethyl)phenyl)amino)-4,5-dihydro-1H-pyrazolo[4,3-c]pyridin-1-yl)cyclohexanecarbonitrile]
1.5 nM	N#C[C@H]1CCCC[C@@H]1n1nc(Nc2cccc(CN)c2)c2c(=O)[nH]ccc21 [Example 6-1, (1S,2S)-2-(3-((3-(Aminomethyl)phenyl)amino)-4-oxo-4,5-dihydro-1H-pyrazolo[4,3-c]pyridin-1-yl)cyclohexanecarbonitrile]
18 nM	N#C[C@H]1CCCC[C@@H]1n1nc(Nc2ccc3c(c2)C(O)(CO)CCS3(=O)=O)c2c(=O)[nH]ccc21 (stereo partly drawn) [Example 3-48, (1S,2S)-2-(3-{[4-hydroxy-4-(hydroxymethyl)-1,1-dioxido-3,4-dihydro-2H-thiochromen-6-yl]amino}-4-oxo-4,5-dihydro-1H-pyrazolo[4,3-c]pyridin-1-yl)cyclohexanecarbonitrile]
2.5 nM	N#C[C@@H]1CCCC[C@@H]1n1nc(Nc2ccc(F)cc2)c2c(=O)[nH]ccc21 (racemic) [Example 1-1, (cis)-2-{3-[(4-Fluorophenyl)amino]-4-oxo-4,5-dihydro-1H-pyrazolo[4,3-c]pyridin-1-yl}cyclohexanecarbonitrile]
0.58 nM	CC1NCc2cc(Nc3nn([C@H]4CCCC[C@@H]4C#N)c4cc[nH]c(=O)c34)ccc21 (single isomer, unassigned) [Example 12-4, (1S,2S)-2-(3-{[(1S or 1R)-1-methyl-2,3-dihydro-1H-isoindol-5-yl]amino}-4-oxo-4,5-dihydro-1H-pyrazolo[4,3-c]pyridin-1-yl)cyclohexanecarbonitrile]
